Usually EC50 stands for the concentration giving half of the maximal effect.

The values that follow come from patent US10092574B2, “Inhibitors of polynucleotide repeat-associated RNA foci and uses thereof” (VALORISATION-RECHERCHE, LIMITED PARTNERSHIP, priority 2013, dated 2018).

In data set [1] the test system is CUG-repeat RNA foci (mutant DMPK mRNA). The data set is described as follows: FISH detection and quantification of CUG-repeat RNA foci in DM1 patient myoblasts. The format is cell-based, human. Particulars: DM1 myoblasts ~1250 CTG, 7 days, 15 μM compound 15 or 5 μM compound 32, vs DMSO (FIG. 4). The method, then:
Human myoblasts were obtained from the Myosix institute associated with the Association Frangaise contre les Myopathies (AFM). Five primary myoblast lines were obtained as controls, and one line from a DM1 patient with a 3.8 Kb CTG triplet amplification corresponding to approximately 1250 CTG repeats. The human myoblasts are cultivated in HAM-F10 media (SIGMA N6635) with 15% FBS, 1% chick embryo extract, and 390 ng/ml of dexamethasone. One day before adding compounds, 2×10^5 cells were plated in 100 mm plates (for CUGBP1 western blot or RT-PCR alternative splicing assay) or 2×10^4 cells/well are seeded in 12-well plates containing 12 mm round glass coverslips (for FISH to detect RNA foci). […]
For fluorescent in situ hybridization (FISH), cells grown on glass coverslips were fixed in PBS containing 4% paraformaldehyde, dehydrated for 2 hours in 70% ethanol, and incubated overnight with 10 ng of probe in 2×SSC 40% formamide at 37° C. […] To quantify the CUG repeat RNA aggregates, the 3D images of the foci were first processed by maximum intensity projection with the MetaMorph™ software (Molecular Devices Inc.), resulting in a 2D image containing all the foci in each cell. […] For each treatment condition, 60 to 80 cells were analyzed and all the data points were presented, with the median value indicated. […]

The subject of data set [2] is Normal or DM1 myoblasts. Put plainly: Cytotoxicity assay (Hoescht 33342 / propidium iodide, High Content Screening microscope). Particulars: for cellular toxicity: 7 days (FIG. 10). The format is cell-based, human. The method, then:
The cellular toxicity of compounds 15 and 32, and their analogs was also measured using a validated cytotoxicity assay. Normal or DM1 myoblasts were treated with 20 μM of compound or DMSO. The ratio of viable cells was measured with a High Content Screening microscope in live cells treated with Hoescht 33342 (labels all cells) and propidium iodide (labels dead cells). The total number of cells was counted and the number of dead cells was subtracted to obtain the number of viable cells, which is presented as a ratio (drug-treated versus DMSO-treated cells). The percentage of dead cells was also measured using propidium iodide.
The cellular toxicity of the compounds was also measured in a dose-response assay. In this assay, normal (M908) and patient (DM1) myoblasts were treated for 7 days with compound 32 or 196 at concentrations varying from 5 to 60 μM. Cell number and cell death was quantified by High Content Screening microscope, as specified above. […] Indeed, the ratio of viable cells at 20 μM of compound 15 is 0.22 (FIG. 10), while for compound 196, an analogue of compound 15, it is above 1 at the same concentration (FIG. 14C).

Data set [3] concerns luciferase-CUG200 mRNA. Put plainly: Dose-response of nuclear export/translation of luciferase-CUG200 reporter mRNA in C2C12 myoblast cell line. The format is cell-based, murine. Particulars: for EC50: Mus musculus, read-out: EC50 (luciferase from luciferase-CUG200 mRNA). On the procedure:
C2C12 murine myoblast cells and Phoenix retrovirus packaging cells were cultivated in DMEM supplemented with 10% FBS. Phoenix cells were transfected with the desired retroviral vector by the Calcium-Phosphate method and, 48 hours after transfection, retrovirus-containing supernatant was supplemented with polybrene and deposited on cells to infect. C2C12 Tet-Off cell lines were generated by infecting cells with the retrovirus pTet-Off IN (Clontech) and selecting for Doxycycline (Dox)-regulated clones. Cell lines expressing the LacZ-5CUG, LacZ-145CUG, LUC-5CUG or LUC-200CUG transcripts were generated by infecting C2C12 Tet-Off cells with the desired reporter construct in the pRevTRE plasmid (Clontech) and selecting for stable clones with inducible expression. The 3′UTR of human DMPK containing 5 CTG repeats or 200 CTG repeats was cloned downstream of the luciferase or beta-galactosidase open reading frames. The C2C12 cell line(s) are cultivated in media containing 1 ng/ml Dox to repress transcription of the reporter constructs.
The two compounds identified by the screening assay described above, which were named compound 15 and 32, have the structure depicted in FIG. 3. Compound 15 has a para-sulfonamide structure, and compound 32 is a benzyl methylthiophene amide. […] The dose-response effect of candidate drugs 15 and 32 on the nuclear export of luciferase-CUG200 mRNA was assessed in the C2C12 myoblast cell line. The amount of CUG repeat RNA that get exported and properly translated into luciferase in response to treatment with varying concentrations of target drugs was measured in order to determine the dose-response curves.

Regarding `CCCN(CCC)S(=O)(=O)c1ccc(NS(=O)(=O)Cc2ccccc2)cc1` [Compound 15], the “decrease in RNA foci formation (surface occupied by RNA foci in the nucleus)” value in data set [1] is “more than two-fold decrease”. Besides, in data set [2] (20 μM), the cellular toxicity entry is recorded as “some toxicity”. In addition, in data set [2] (20 μM, 7 days (FIG. 10, FIG. 14C)), the “ratio of viable cells (drug-treated versus DMSO-treated)” value was 0.22. For the same compound, in data set [3], the “concentration at which plateau / peak of maximal effect was reached” value was 15 µM and the concentration giving a half-maximal response (EC50) was found to be 6.8 µM.
For the compound `CCCc1c(C(=O)N(Cc2ccccc2)Cc2cccs2)cnn1-c1ccccc1` [Compound 32], the “decrease in RNA foci formation (surface occupied by RNA foci in the nucleus)” value in data set [1] was “more than two-fold decrease”. In addition, the cellular toxicity result in data set [2] (20 μM) is “little toxicity”. Further, the “main phenotype at higher concentrations” value in data set [2] (normal (M908) and DM1 myoblasts, 7 days, 5 to 60 μM) was “cytostatic effect”. In data set [2] (normal (M908) and DM1 myoblasts, 7 days, concentration of 20 μM and below (FIGS. 14A-D)), the “cytotoxicity in dose-response assay” value is listed as “little cytotoxicity”. For the same compound, in data set [3], the “concentration at which plateau / peak of maximal effect was reached” value was 5 µM and the concentration giving a half-maximal response (EC50) is 2.5 µM.
